Reference: ChEMBL document CHEMBL1143353, “Pyrazolo[1,5-a]-1,3,5-triazine as a purine bioisostere: access to potent cyclin-dependent kinase inhibitor (R)-roscovitine analogue” (J Med Chem, 2009)

Tests used:
NCI-H522 = assay: cells; settings: Homo sapiens, NCI-H522, 72 h
Description: Antiproliferative activity against human NCI-H522 cells after 72 hrs by ViaLight assay

NCI-H460 = assay: cells; settings: Homo sapiens, NCI-H460, 72 h
Description: Antiproliferative activity against human NCI-H460 cells after 72 hrs by ViaLight assay

M14 = assay: cells; settings: Homo sapiens, M14, 72 h
Description: Antiproliferative activity against human M14 cells after 72 hrs by ViaLight assay

TK-10 = assay: cells; settings: Homo sapiens, TK-10, 72 h
Description: Antiproliferative activity against human TK10 cells after 72 hrs by ViaLight assay

ACHN = assay: cells; settings: Homo sapiens, 72 h
Description: Antiproliferative activity against human ACHN cells after 72 hrs by ViaLight assay

SK-MEL-5 = assay: cells; settings: Homo sapiens, SK-MEL-5, 72 h
Description: Antiproliferative activity against human SK-MEL-5 cells after 72 hrs by ViaLight assay

IGROV-1 = assay: cells; settings: Homo sapiens, IGROV-1, 72 h
Description: Antiproliferative activity against human IGROV1 cells after 72 hrs by ViaLight assay

786-0 = assay: cells; settings: Homo sapiens, 786-0, 72 h
Description: Antiproliferative activity against human 786-0 cells after 72 hrs by ViaLight assay

HCT-15 = assay: cells; settings: Homo sapiens, HCT-15, 72 h
Description: Antiproliferative activity against human HCT15 cells after 72 hrs by ViaLight assay

SF-295 = assay: cells; settings: Homo sapiens, SF-295, 72 h
Description: Antiproliferative activity against human SF295 cells after 72 hrs by ViaLight assay

EKVX = assay: cells; settings: Homo sapiens, 72 h
Description: Antiproliferative activity against human EKVX cells after 72 hrs by ViaLight assay

NCI-H23 = assay: cells; settings: Homo sapiens, NCI-H23, 72 h
Description: Antiproliferative activity against human NCI-H23 cells after 72 hrs by ViaLight assay

DU-145 = assay: cells; settings: Homo sapiens, DU-145, 72 h
Description: Antiproliferative activity against human DU145 cells after 72 hrs by ViaLight assay

SH-SY5Y = assay: Antiproliferative activity against human SH-SY5Y cells after 48 hrs by MTS reduction assay; format: functional, cell-based
HEK293 = assay: Antiproliferative activity against human HEK293 cells after 48 hrs by MTS reduction assay; format: cell-based; settings: HEK293, 48 h
SNB-75 = assay: cells; settings: Homo sapiens, SNB-75, 72 h
Description: Antiproliferative activity against human SNB75 cells after 72 hrs by ViaLight assay

SK-OV-3 = assay: cells; settings: Homo sapiens, SK-OV-3, 72 h
Description: Antiproliferative activity against human SKOV3 cells after 72 hrs by ViaLight assay

cells [1] = settings: Homo sapiens, Hs-578T, 72 h
Description: Antiproliferative activity against human Hs 578T cells after 72 hrs by ViaLight assay

HCC 2998 = assay: cells; settings: Homo sapiens, HCC 2998, 72 h
Description: Antiproliferative activity against human HCC2998 cells after 72 hrs by ViaLight assay

OVCAR-3 = assay: cells; settings: Homo sapiens, OVCAR-3, 72 h
Description: Antiproliferative activity against human OVCAR-3 cells after 72 hrs by ViaLight assay

HOP-62 = assay: cells; settings: Homo sapiens, HOP-62, 72 h
Description: Antiproliferative activity against human HOP62 cells after 72 hrs by ViaLight assay

SNB-19 = assay: cells; settings: Homo sapiens, SNB-19, 72 h
Description: Antiproliferative activity against human SNB19 cells after 72 hrs by ViaLight assay

T47D = assay: cells; settings: Homo sapiens, 72 h
Description: Antiproliferative activity against human T47D cells after 72 hrs by ViaLight assay

U-251 = assay: cells; settings: Homo sapiens, U-251, 72 h
Description: Antiproliferative activity against human U251 cells after 72 hrs by ViaLight assay

SF-268 = assay: cells; settings: Homo sapiens, SF-268, 72 h
Description: Antiproliferative activity against human SF268 cells after 72 hrs by ViaLight assay

SF-539 = assay: cells; settings: Homo sapiens, SF-539, 72 h
Description: Antiproliferative activity against human SF539 cells after 72 hrs by ViaLight assay

HCT-116 = assay: cells; settings: Homo sapiens, HCT-116, 72 h
Description: Antiproliferative activity against human HCT116 cells after 72 hrs by ViaLight assay

cells [2] = settings: Homo sapiens, RPMI8266, 72 h
Description: Antiproliferative activity against human RPMI8266 cells after 72 hrs by ViaLight assay

LOX IMVI = assay: cells; settings: Homo sapiens, 72 h
Description: Antiproliferative activity against human LOXIMVI cells after 72 hrs by ViaLight assay

MDA-MB-231 = assay: cells; settings: Homo sapiens, MDA-MB-231, 72 h
Description: Antiproliferative activity against human MDA-MB-231 cells after 72 hrs by ViaLight assay

Compound: CC[C@H](CO)Nc1nc(NCc2ccccc2)n2ncc(C(C)C)c2n1
- GI50 (NCI-H522): 1.46 µM
- TGI (NCI-H522): 8.98 µM
- CC50 (NCI-H522; read-out: LC50): > 100 µM
- GI50 (NCI-H522; read-out: pGI50 (converted)): 1.45 µM
- CC50 (NCI-H522; read-out: pLC50 (converted)): 100 µM
- TGI (NCI-H522; read-out: pTGI): 8.91 µM
- GI50 (NCI-H460): 1.05 µM
- TGI (NCI-H460): 10.9 µM
- CC50 (NCI-H460; read-out: LC50): > 100 µM
- GI50 (NCI-H460; read-out: pGI50 (converted)): 1.05 µM
- CC50 (NCI-H460; read-out: pLC50 (converted)): 100 µM
- TGI (NCI-H460; read-out: pTGI): 11 µM
- GI50 (M14): 2 µM
- TGI (M14): 7.93 µM
- CC50 (M14; read-out: LC50): 34.3 µM
- GI50 (M14; read-out: pGI50 (converted)): 2 µM
- CC50 (M14; read-out: pLC50 (converted)): 34.7 µM
- TGI (M14; read-out: pTGI): 7.94 µM
- GI50 (TK-10): 2 µM
- TGI (TK-10): 10.9 µM
- CC50 (TK-10; read-out: LC50): > 100 µM
- GI50 (TK-10; read-out: pGI50 (converted)): 2 µM
- CC50 (TK-10; read-out: pLC50 (converted)): 100 µM
- TGI (TK-10; read-out: pTGI): 11 µM
- GI50 (ACHN): 0.81 µM
- TGI (ACHN): 10.7 µM
- CC50 (ACHN; read-out: LC50): 49.1 µM
- GI50 (ACHN; read-out: pGI50 (converted)): 0.813 µM
- CC50 (ACHN; read-out: pLC50 (converted)): 49 µM
- TGI (ACHN; read-out: pTGI): 10.7 µM
- GI50 (SK-MEL-5): 1.78 µM
- TGI (SK-MEL-5): 4.96 µM
- CC50 (SK-MEL-5; read-out: LC50): 17.4 µM
- GI50 (SK-MEL-5; read-out: pGI50 (converted)): 1.78 µM
- CC50 (SK-MEL-5; read-out: pLC50 (converted)): 17.4 µM
- TGI (SK-MEL-5; read-out: pTGI): 5.01 µM
- GI50 (IGROV-1): 0.78 µM
- TGI (IGROV-1): > 100 µM
- CC50 (IGROV-1; read-out: LC50): > 100 µM
- GI50 (IGROV-1; read-out: pGI50 (converted)): 0.776 µM
- CC50 (IGROV-1; read-out: pLC50 (converted)): 100 µM
- TGI (IGROV-1; read-out: pTGI): 100 µM
- GI50 (786-0): 1.98 µM
- TGI (786-0): 10.7 µM
- CC50 (786-0; read-out: LC50): > 100 µM
- GI50 (786-0; read-out: pGI50 (converted)): 1.86 µM
- CC50 (786-0; read-out: pLC50 (converted)): 100 µM
- TGI (786-0; read-out: pTGI): 0.135 µM
- GI50 (HCT-15): 0.87 µM
- TGI (HCT-15): 10.5 µM
- CC50 (HCT-15; read-out: LC50): > 100 µM
- GI50 (HCT-15; read-out: pGI50 (converted)): 8.91 µM
- CC50 (HCT-15; read-out: pLC50 (converted)): 100 µM
- TGI (HCT-15; read-out: pTGI): 10.5 µM
- GI50 (SF-295): 0.81 µM
- TGI (SF-295): 4.74 µM
- GI50 (SF-295; read-out: pGI50 (converted)): 0.813 µM
- TGI (SF-295; read-out: pTGI): 4.79 µM
- GI50 (EKVX): 2.41 µM
- TGI (EKVX): 9.13 µM
- GI50 (EKVX; read-out: pGI50 (converted)): 2.4 µM
- TGI (EKVX; read-out: pTGI): 9.12 µM
- GI50 (NCI-H23): 1.71 µM
- TGI (NCI-H23): 7.79 µM
- CC50 (NCI-H23; read-out: LC50): > 100 µM
- GI50 (NCI-H23; read-out: pGI50 (converted)): 1.7 µM
- CC50 (NCI-H23; read-out: pLC50 (converted)): 100 µM
- TGI (NCI-H23; read-out: pTGI): 7.76 µM
- GI50 (DU-145): 1.3 µM
- TGI (DU-145): 9.52 µM
- CC50 (DU-145; read-out: LC50): > 100 µM
- GI50 (DU-145; read-out: pGI50 (converted)): 2.63 µM
- CC50 (DU-145; read-out: pLC50 (converted)): 100 µM
- TGI (DU-145; read-out: pTGI): 9.55 µM
- IC50 (SH-SY5Y): 2.7 µM
- IC50 (HEK293): 7.6 µM
- GI50 (SNB-75): 1.31 µM
- TGI (SNB-75): 3.33 µM
- CC50 (SNB-75; read-out: LC50): 8.48 µM
- GI50 (SNB-75; read-out: pGI50 (converted)): 1.32 µM
- CC50 (SNB-75; read-out: pLC50 (converted)): 8.51 µM
- TGI (SNB-75; read-out: pTGI): 3.31 µM
- GI50 (SK-OV-3): 5.55 µM
- TGI (SK-OV-3): 40.2 µM
- CC50 (SK-OV-3; read-out: LC50): > 100 µM
- GI50 (SK-OV-3; read-out: pGI50 (converted)): 5.5 µM
- CC50 (SK-OV-3; read-out: pLC50 (converted)): 100 µM
- TGI (SK-OV-3; read-out: pTGI): 39.8 µM
- GI50 (cells [1]): 1.59 µM
- TGI (cells [1]): 6.16 µM
- CC50 (cells [1]; read-out: LC50): > 100 µM
- GI50 (cells [1]; read-out: pGI50 (converted)): 1.58 µM
- CC50 (cells [1]; read-out: pLC50 (converted)): 100 µM
- TGI (cells [1]; read-out: pTGI): 6.17 µM
- GI50 (HCC 2998): 1.2 µM
- TGI (HCC 2998): 3.27 µM
- CC50 (HCC 2998; read-out: LC50): 8.96 µM
- GI50 (HCC 2998; read-out: pGI50 (converted)): 1.2 µM
- CC50 (HCC 2998; read-out: pLC50 (converted)): 8.71 µM
- TGI (HCC 2998; read-out: pTGI): 3.24 µM
- GI50 (OVCAR-3): 1.15 µM
- TGI (OVCAR-3): 4.6 µM
- CC50 (OVCAR-3; read-out: LC50): 42.4 µM
- GI50 (OVCAR-3; read-out: pGI50 (converted)): 1.45 µM
- CC50 (OVCAR-3; read-out: pLC50 (converted)): 42.7 µM
- TGI (OVCAR-3; read-out: pTGI): 4.57 µM
- GI50 (HOP-62): 2.1 µM
- TGI (HOP-62): 8.72 µM
- CC50 (HOP-62; read-out: LC50): > 100 µM
- GI50 (HOP-62; read-out: pGI50 (converted)): 2.09 µM
- CC50 (HOP-62; read-out: pLC50 (converted)): 100 µM
- TGI (HOP-62; read-out: pTGI): 1.1 µM
- GI50 (SNB-19): 1.44 µM
- TGI (SNB-19): 12.3 µM
- CC50 (SNB-19; read-out: LC50): > 100 µM
- GI50 (SNB-19; read-out: pGI50 (converted)): 1.15 µM
- CC50 (SNB-19; read-out: pLC50 (converted)): 100 µM
- TGI (SNB-19; read-out: pTGI): 12.3 µM
- GI50 (T47D): 2.48 µM
- TGI (T47D): 13.3 µM
- CC50 (T47D; read-out: LC50): > 100 µM
- GI50 (T47D; read-out: pGI50 (converted)): 3.09 µM
- CC50 (T47D; read-out: pLC50 (converted)): 100 µM
- TGI (T47D; read-out: pTGI): 12.9 µM
- GI50 (U-251): 1.4 µM
- TGI (U-251): 10.5 µM
- CC50 (U-251; read-out: LC50): > 100 µM
- GI50 (U-251; read-out: pGI50 (converted)): 1.41 µM
- CC50 (U-251; read-out: pLC50 (converted)): 100 µM
- TGI (U-251; read-out: pTGI): 10.5 µM
- GI50 (SF-268): 1.82 µM
- TGI (SF-268): 7.2 µM
- CC50 (SF-268; read-out: LC50): > 100 µM
- GI50 (SF-268; read-out: pGI50 (converted)): 1.82 µM
- CC50 (SF-268; read-out: pLC50 (converted)): 100 µM
- TGI (SF-268; read-out: pTGI): 7.24 µM
- GI50 (SF-539): 1.22 µM
- TGI (SF-539): 3.62 µM
- CC50 (SF-539; read-out: LC50): 11.9 µM
- GI50 (SF-539; read-out: pGI50 (converted)): 1.23 µM
- CC50 (SF-539; read-out: pLC50 (converted)): 11.7 µM
- TGI (SF-539; read-out: pTGI): 3.63 µM
- GI50 (HCT-116): 0.51 µM
- TGI (HCT-116): 15 µM
- CC50 (HCT-116; read-out: LC50): > 100 µM
- GI50 (HCT-116; read-out: pGI50 (converted)): 0.513 µM
- CC50 (HCT-116; read-out: pLC50 (converted)): 100 µM
- TGI (HCT-116; read-out: pTGI): 15.1 µM
- GI50 (cells [2]): 2.23 µM
- TGI (cells [2]): 6.93 µM
- CC50 (cells [2]; read-out: LC50): > 100 µM
- GI50 (cells [2]; read-out: pGI50 (converted)): 2.24 µM
- CC50 (cells [2]; read-out: pLC50 (converted)): 100 µM
- TGI (cells [2]; read-out: pTGI): 6.92 µM
- GI50 (LOX IMVI): 1.07 µM
- TGI (LOX IMVI): 10.3 µM
- CC50 (LOX IMVI; read-out: LC50): 34.4 µM
- GI50 (LOX IMVI; read-out: pGI50 (converted)): 1.07 µM
- CC50 (LOX IMVI; read-out: pLC50 (converted)): 34.7 µM
- TGI (LOX IMVI; read-out: pTGI): 10.2 µM
- GI50 (MDA-MB-231): 2.37 µM
- TGI (MDA-MB-231): 9.47 µM
- CC50 (MDA-MB-231; read-out: LC50): > 100 µM
- GI50 (MDA-MB-231; read-out: pGI50 (converted)): 2.4 µM
- CC50 (MDA-MB-231; read-out: pLC50 (converted)): 100 µM
- TGI (MDA-MB-231; read-out: pTGI): 9.55 µM
